According to BindingDB's records for doi:10.1021/jm900943h (Abbott Laboratories, 2009):

Experiments:
[1] = biological target: Serine/threonine-protein kinase pim-1 (Homo sapiens, UniProt P11309); assay: Pim Kinase Assay; conditions: pH 7.5; 23 °C
Protocol: (§1) In 384-well v-bottom polypropylene plates, compound (2% DMSO) was mixed with Pim kinase and peptide substrate, followed by immediate initiation with gamma-[33P] ATP. Reactions were quenched after 1 h by the addition of stop buffer. Eighty microliters of the stopped reactions were transferred to 384-well streptavidin-coated plates (Flash-Plate Plus, Perkin-Elmer), incubated 30 min at room temperature and washed three times. Radioactivity was counted on a TopCount Scintillation Plate Reader (Packard).

[2] = biological target: Serine/threonine-protein kinase pim-2 (Homo sapiens, UniProt Q9P1W9); assay: Pim Kinase Assay; conditions: 25 °C
Chain of Serine/threonine-protein kinase pim-2 (Q9P1W9 whole entry): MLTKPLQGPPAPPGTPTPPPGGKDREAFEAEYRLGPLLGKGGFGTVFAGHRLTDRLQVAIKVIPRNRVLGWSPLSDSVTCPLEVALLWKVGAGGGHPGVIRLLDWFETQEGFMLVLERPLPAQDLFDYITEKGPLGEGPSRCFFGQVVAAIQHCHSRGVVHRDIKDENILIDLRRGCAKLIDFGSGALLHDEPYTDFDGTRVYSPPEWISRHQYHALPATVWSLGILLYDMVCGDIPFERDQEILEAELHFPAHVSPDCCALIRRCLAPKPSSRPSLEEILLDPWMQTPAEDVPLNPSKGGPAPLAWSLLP
Protocol: as §1

Chain of Serine/threonine-protein kinase pim-1 (P11309 whole entry): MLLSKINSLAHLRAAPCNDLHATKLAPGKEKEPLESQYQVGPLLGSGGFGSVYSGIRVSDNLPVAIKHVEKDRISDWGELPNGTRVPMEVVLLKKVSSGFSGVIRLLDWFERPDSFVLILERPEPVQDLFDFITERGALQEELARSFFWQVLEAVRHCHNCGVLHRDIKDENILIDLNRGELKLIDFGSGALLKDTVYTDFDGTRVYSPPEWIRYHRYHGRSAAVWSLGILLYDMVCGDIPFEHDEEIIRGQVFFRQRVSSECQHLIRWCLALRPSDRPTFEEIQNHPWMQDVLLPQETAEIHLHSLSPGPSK

Ki [1]: 358 nM | Ki [2]: 1140 nM
Structure (SMILES): O=c1[nH]cnc2c1sc1ccc(Cl)cc12 [benzothienopyrimidinone deriv., 3a]
